Measurements as given in the NIST ThermoML archive (doi:10.1021/je700578f).
Numbers after ± are expanded uncertainties.

Settings: Maximal bubble pressure

surface tension liquid-gas (353.15 K) [mN/m]	surface tension liquid-gas (373.15 K) [mN/m]	surface tension liquid-gas (393.15 K) [mN/m]	surface tension liquid-gas (413.15 K) [mN/m]	surface tension liquid-gas (433.15 K) [mN/m]	surface tension liquid-gas (453.15 K) [mN/m]	surface tension liquid-gas (473.15 K) [mN/m]	surface tension liquid-gas (303.15 K) [mN/m]	surface tension liquid-gas (313.15 K) [mN/m]	surface tension liquid-gas (323.15 K) [mN/m]	surface tension liquid-gas (333.15 K) [mN/m]	surface tension liquid-gas (343.15 K) [mN/m]	SMILES
39.6 ± 1.6	37.53 ± 1.5	35.33 ± 1.4	33.3 ± 1.4	31.1 ± 1.3	28.95 ± 1.2	26.8 ± 1.1	–	–	–	–	–	O=C(OCc1ccccc1)c1ccccc1 [benzyl benzoate]
–	–	–	–	–	–	–	21.75 ± 0.89	20.9 ± 0.86	20.04 ± 0.82	19.18 ± 0.79	18.32 ± 0.75	CO [methanol]
